In patent publication US5585382A, “Polycyclic and heterocyclic chromophores for bis-imide tumoricidals” (The DuPont Merck Pharmaceutical Company, priority 1995, dated 1996):
Values after ≈ are worked out from the molar mass of the structure shown. Like-named read-outs stand apart in the source and are kept apart here.

Assays:
[1] = tested on: Clone A human colon cancer cells; test: In vitro growth inhibition of Clone A cells (MTT, 72 hr); type: cell-based; conditions: read-out: Clone A IC50
Method: (§1) The reagents for tissue culture were purchased from GIBCO (Grand Island, N.Y.). 5-Dimethylthiazol-2-yl)-2,5-diphenyl tetrazolium bromide (MTT) was purchased from Sigma Chemical Company (St. Louis, Mo.). All agents were prepared as 2 mg/ml stock solutions in DMSO. MTT was prepared as a 1 mg/ml stock solution in Dulbecco's phosphate buffered saline (PBS). All stocks were stored frozen in the dark at -20° C.
(§2) Clone A human colon cancer cells were isolated from the heterogeneous DLD-1 colon tumor line and maintained as previously described (Dexter, D. L.; Barbosa, J. A.; Calabresi, P. Cancer Research 1979, 39, 1020; Dexter, D. L.; Spremulli, E. M.; Fligiel, A.; Barbosa, J. A.; Vogel, R.; Van Vorhees, A.; Calabresi, P. Am. J. Med. 1981, 71, 949.). Murine leukemia L1210 cells were maintained in RPMI-L medium as described (Chen, S.-F.; Ruben, R. L.; Dexter, D. L. Cancer Research 1986, 46, 5014.). All cell lines were incubated at 37° C. in a humidified atmosphere of 5% CO2 -95% air.
(§3) Exponentially growing L1210 cells (1×10^3), or Clone A cells (8×10^2) in 0.1 ml medium were seeded in a 96-well microtiter plate on day 0. On day one, 0.1 ml aliquots of medium containing graded concentrations of test compounds were added to the cell plates. After incubation at 37° C. in a humidified incubator for 72 hr, the plates containing L1210 cells were centrifuged briefly and 100 μl of the growth medium was removed. Cell cultures were incubated with 50 μl of MTT for 4 h at 37° C. (12). The resulting purple formazan precipitate was solubilized with 200 μl of 0.04 N HCl in isopropyl alcohol. Absorbance was read in a Titertek Multiskan MCC scanning well spectrophotometer (Flow Laboratories) at a test wavelength of 570 nm and a reference wavelength of 630 nm. The absorbances were stored on a floppy disk on an IBM-XT and uploaded onto a VAX computer. IC50 values were determined by a computer program that fit the data to the following equation:
(§4) Y=((Am -Ao)/(1+(X/IC50)^n))+Ao
(§5) where Am =absorbance of the control cells; Ao =absorbance of the cells in the presence of highest compound concentration; Y=observed absorbance; X=compound concentration; IC50 =dose of compound that inhibits the number of population doublings of cells to one half that of the number of population doublings of the control cells; and n equals the slope of the straight portion of the curve.
(§6) The values reported in the table are from at least one experiment performed in eight replicates. If more than one experiment was performed, the number reported is the average of all the trials

[2] = tested on: MX-1 human mammary carcinoma; test: In vivo human tumor xenograft MX-1 in nude mice; conditions: for Tumor Growth Inhibition activity against MX-1 (in words) / inhibition in vivo at 25 mg/kg: i.v. once daily for nine days, nude mice; for Tumor Growth Inhibition activity against MX-1 (in words): NCI criteria
Text: The DLD-2 human colon tumor and MX-1 human mammary carcinoma, were originally obtained from a surgically-removed primary colon carcinoma or breast tumor respectively. The human tumor lines were maintained by serial passage in athymic nude mice. The MX-1 human mammary carcinoma is an established tumor used by the NCI. The DLD-2 human colon tumor has been well characterized. (Dexter, D. L.; Spremulli, E. N.; Matook, G. M.; Diamond, I.; Calabresi, P. Cancer Research 1982, 42, 5010; Dexter, D. L.; Barbosa, J. A.; Calabresi, P. Cancer Research 1979, 39, 1020.)
The mice used in these experiments were outbred Swiss mice or CD-1 mice bearing the nude (nu/nu) gene. On Day 0, male and female mice weighing 22-30 g are inoculated with 0.2 mL of a 25% tumor mince. This mince is prepared by mincing fresh tumor tissue, grown subcutaneously in passage mice, in sterile physiological saline. Palpable tumors weighing approximately 50 mg appear in the mice within 7-10 days after inoculation. The mice are pair matched by tumor weight and sex into groups of ten each and the test compounds and vehicle control are administered intravenously (i.v.) once daily for nine consecutive days. A >20% decrease in body weight on Day 5 following compound administration is considered an indication of toxicity. Tumor measurements and body weights are recorded once a week. Fifteen to eighteen days after the initial injection the mice are weighed, sacrificed, and the tumors excised and weighed.
The efficacy of the test compounds is determined by the extent of tumor growth inhibition in treated versus vehicle-treated control mice. Initial tumor weights (mg) are calculated from the tumor dimensions (mm) obtained from caliper measurements, using the formula for a prolate ellipsoid (mg of tumor weight=(length×width^2)/2). Net tumor weights are calculated for each of the treated groups and the vehicle-treated control group by subtracting the initial tumor weight from the final tumor weight (Day 15-18). Results are expressed as a percentage decrease relative to the mean tumor weight for the control vehicle-treated group.
Tumor Growth Inhibition= [formula]
The evaluation criteria of the National Cancer Institute for activity in in vivo cancer models were used. Tumor growth inhibition of 58-89% against the various xenografts is considered moderate activity, and inhibition of ≥90% is considered good to excellent activity. Actual tumor regressions (IR=incomplete regression; FR=full regression) indicate excellent to outstanding activity.

[3] = tested on: Murine leukemia L1210 cells; test: In vitro growth inhibition of L1210 cells (MTT, 72 hr); type: cell-based; conditions: Mus musculus, read-out: L1210 IC50
Method: as §1, §2, §3, §4, §5, §6

[4] = Mus musculus, iv, 216 h, read-out: MX-1 percent tumor growth inhibition

CS(=O)(=O)O.CS(=O)(=O)O.O=C1c2cc([N+](=O)[O-])cc3c2c(cc2cccnc23)C(=O)N1CCNCCNCCN1C(=O)c2cc([N+](=O)[O-])cc3c2c(cc2cccnc23)C1=O [Example 6, 1,2-bis-[2-(3-Nitro-5-azaphenanthrene-1,10-dicarboximido)ethylamino]ethane Dihydromethanesulfonate]
IC50 ([1]; 72 h): 0.005 µg/mL
solubility (Solubility in water): 330 µg/mL
inhibition in vivo at 12.5 mg/kg [2, 4]: 81%
Tumor Growth Inhibition activity against MX-1 (in words) [2]: moderate to excellent
IC50 ([3]; L1210, 72 h): 0.041 µg/mL

CS(=O)(=O)O.CS(=O)(=O)O.O=C1c2cc([N+](=O)[O-])cc3c2c(cc2ncccc23)C(=O)N1CCNCCNCCN1C(=O)c2cc([N+](=O)[O-])cc3c2c(cc2ncccc23)C1=O [Example 19, 1,2-bis-[2-(3-Nitro-8-azaphenanthrene-1,10-dicarboximido)ethylamino]ethane Dihydromethanesulfonate]
IC50 ([1]; 72 h): 0.009 µg/mL
solubility (Solubility in water): 950 µg/mL
inhibition in vivo at 6 mg/kg [2, 4]: 84%
Tumor Growth Inhibition activity against MX-1 (in words) [2]: moderate to excellent
IC50 ([3]; L1210, 72 h): 0.013 µg/mL

CS(=O)(=O)O.CS(=O)(=O)O.C[C@@H](CN1C(=O)c2cc([N+](=O)[O-])cc3c2c(cc2cccnc23)C1=O)NCCN[C@@H](C)CN1C(=O)c2cc([N+](=O)[O-])cc3c2c(cc2cccnc23)C1=O [Example 20, (S,S)-1,2-bis-[2-(3-Nitro-5-azaphenanthrene-1, 10-dicarboximido)-1-methylethylamino]ethane Dihydromethanesulfonate]
solubility (Solubility in water): 3330 µg/mL
inhibition in vivo at 6.2 mg/kg [2, 4]: 95%
responders at 6.2 mg/kg ([2]; Mus musculus, iv, 216 h, read-out: MX-1 tumor regressions, IR=incomplete regression): 11.1%
Tumor Growth Inhibition activity against MX-1 (in words) [2]: moderate to excellent
IC50 ([3]; L1210, 72 h): 0.012 µg/mL

Cc1cnc2c(c1)cc1c3c(cc([N+](=O)[O-])cc32)C(=O)N(CCCNCCN2C(=O)c3cc([N+](=O)[O-])cc4c3c(cc3cc(C)cnc34)C2=O)C1=O [Example 22]
IC50 ([1]; Clone A cells, 72 hr, MTT): 0.003 µg/mL (≈ 0.0043 µM)
solubility (Solubility in water): 30 µg/mL (≈ 43 µM)
inhibition in vivo at 25 mg/kg [2, 4]: 0%
IC50 ([3]; L1210 cells, 72 hr, MTT): 0.02 µg/mL (≈ 0.0287 µM)

Cc1cnc2c(c1)cc1c3c(cc([N+](=O)[O-])cc32)C(=O)N(CCNCCNCCN2C(=O)c3cc([N+](=O)[O-])cc4c3c(cc3cc(C)cnc34)C2=O)C1=O [Example 23]
IC50 ([1]; Clone A cells, 72 hr, MTT): 0.043 µg/mL (≈ 0.0592 µM)
solubility (Solubility in water): 120 µg/mL (≈ 165 µM)
inhibition in vivo at 25 mg/kg [2, 4]: 0%
IC50 ([3]; L1210 cells, 72 hr, MTT): 0.042 µg/mL (≈ 0.0578 µM)

Cc1cnc2c(c1)cc1c3c(cc([N+](=O)[O-])cc32)C(=O)N(C[C@H](C)NCCN[C@@H](C)CN2C(=O)c3cc([N+](=O)[O-])cc4c3c(cc3cc(C)cnc34)C2=O)C1=O [Example 26]
IC50 ([1]; 72 h): 0.012 µg/mL (≈ 0.0159 µM)
inhibition in vivo at 6.2 mg/kg [2, 4]: 22%
IC50 ([3]; L1210, 72 h): 0.018 µg/mL (≈ 0.0238 µM)

CS(=O)(=O)O.CS(=O)(=O)O.CS(=O)(=O)O.Cc1nc2cc3c4c(cccc4c2[nH]1)C(=O)N(CCCCNCCCN1C(=O)c2cccc4c2c(cc2nc(C)[nH]c24)C1=O)C3=O [Example 81, 4-[3-(2-Methyl-1H-naphth[1,2-d]imidazole-5,6-dicarboximido)propylamino]-1-(2-methyl-1H-naphth[1,2-d]imidazole-5,6-dicarboximido)butane Trihydromethanesulfonate]
IC50 ([1]; Clone A cells, 72 hr, MTT): 22.2 µg/mL
solubility (Solubility in water): 7600 µg/mL
IC50 ([3]; L1210 cells, 72 hr, MTT): 0.201 µg/mL

CS(=O)(=O)O.Cc1nc2cc3c4c(cccc4c2s1)C(=O)N(CCCCNCCCN1C(=O)c2cccc4c2c(cc2nc(C)sc24)C1=O)C3=O [Example 82, 4-[3-(2-Methylnaphtho[2,1-d]thiazole-5,6-dicarboximido)propylamino]-1-(2-methylnaphtho[2,1-d]thiazole-5,6-dicarboximido)butane Hydromethanesulfonate]
IC50 ([1]; Clone A cells, 72 hr, MTT): 0.068 µg/mL
solubility (Solubility in water): 4500 µg/mL
IC50 ([3]; L1210 cells, 72 hr, MTT): 0.082 µg/mL
